Test results: patent US12383531B2, “PLA2 inhibitors for treatment of pathological conditions caused by hymenoptera envenomation, such as hemolysis, cerebral edema, and acute kidney injury” (Ophirex, Inc., priority 2016, dated 2025)
“Also recorded” adds a separate entry of the source.

Experiments:
[1] = system: A. contortrix venom sPLA2; assay: sPLA2 chromogenic inhibition assay, A. contortrix venom; type: biochemical; conditions: chromogenic sPLA2 assay after 60 of incubation, read-out: IC50 for each venom inhibitor
V. berus venom sPLA2 = assay: sPLA2 chromogenic inhibition assay, V. berus venom; type: biochemical; conditions: chromogenic sPLA2 assay after 60 of incubation, read-out: IC50 for each venom inhibitor
[2] = system: C. terrificus venom sPLA2; assay: sPLA2 chromogenic inhibition assay, C. terrificus venom; type: biochemical; conditions: chromogenic sPLA2 assay after 60 of incubation, read-out: IC50 for each venom inhibitor
bee venom sPLA2 [3] = target: T1, bee venom sPLA2 (Apis mellifera, UniProt P00630); assay: biochemical; type: biochemical
T1 sequence (P00630 34-167 limits assumed): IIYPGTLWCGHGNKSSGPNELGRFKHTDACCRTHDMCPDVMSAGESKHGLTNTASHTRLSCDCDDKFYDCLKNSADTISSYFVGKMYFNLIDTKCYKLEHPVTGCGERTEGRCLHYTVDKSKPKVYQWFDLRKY

[4] = system: venous human blood incubated with Boomslang (Dispholidus typus) venom; assay: Hemolysis of ex vivo human blood treated with Boomslang venom (FIG. 5B); type: cell-based; conditions: Compound 4 1 uM with or without soluble simvastatin 1 uM, 90 minutes
[5] = system: histamine production or release in human blood; assay: Plasma histamine in human blood; type: cell-based; conditions: human blood from a donor prone to LRR; 10 uM
Method: In this example, 3 cc human blood from a donor prone to LRR was collected and shipped to Quest on ice pursuant to Quest collection protocol 36586 and incubated with (a) Mannitol+Compound 4 (10 uM), (b) Varespladib (10 uM), or (c) Mannitol alone (excipient). Samples were processed for plasma histamine levels, compared with the Mannitol-only control.

[6] = system: boomslang venom or bee venom; assay: Venom-induced acute kidney injury in mice, boomslang venom or bee venom (FIG. 7); type: in vivo, mouse; conditions: sublethal envenomation; single dose at same time as venom; 24 hours
C. atrox venom MP = C. atrox venom MP inhibition; type: biochemical; conditions: 10 μM
E. carinatus venom MP = E. carinatus venom MP inhibition; type: biochemical; conditions: 10 μM
[7] = system: Snake venom metalloprotease, C. atrox and E. carinatus; assay: Snake venom metalloprotease inhibition for C. atrox and E. carinatus; type: biochemical; conditions: 10 μM; range over both venoms
M. fulvius venom sPLA2 = M. fulvius venom sPLA2 inhibition; type: biochemical; conditions: 10 μM
C. atrox venom sPLA2 = assay: sPLA2 chromogenic inhibition assay, C. atrox venom; type: biochemical; conditions: chromogenic sPLA2 assay after 60 of incubation, read-out: IC50 for each venom inhibitor
[8] = system: C. adamanteus venom sPLA2; assay: sPLA2 chromogenic inhibition assay, C. adamanteus venom; type: biochemical; conditions: chromogenic sPLA2 assay after 60 of incubation, read-out: IC50 for each venom inhibitor
V. russelli venom sPLA2 = assay: sPLA2 chromogenic inhibition assay, V. russelli venom; type: biochemical; conditions: chromogenic sPLA2 assay after 60 of incubation, read-out: IC50 for each venom inhibitor
bee venom sPLA2 [9] = target: T1, bee venom sPLA2; conditions: cited from earlier work
bee venom = assay: Survival of mice envenomated with bee venom; type: in vivo, CD-1 mice; conditions: 5 mice; bee venom 5 mg/kg IV; 25 mg/kg varespladib SQ immediately after envenomation
[10] = system: venous human blood incubated with M. Fulvius venom; assay: Hemolysis of ex vivo whole human blood treated with M. Fulvius venom (FIG. 5A); type: cell-based; conditions: inhibitor 1 uM with or without soluble simvastatin 1 uM, 90 minutes
[11] = system: whole bee (Apis mellifera) venom; assay: Acute kidney injury in mice after whole bee venom (FIG. 8); type: in vivo, mouse; conditions: single dose Varespladib (LY315920) with bee venom, then oral methylvarespladib (LY333013) ad libitum in diet; kidneys examined 36 hours

Row | Structure (SMILES) | IC50 [1] [nM] | IC50 (V. berus venom sPLA2) [nM] | inhibitory activity in vitro against bee venom sPLA2 (bee venom sPLA2 [3]) | C. atrox venom MP inhibition % effect (C. atrox venom MP) [%] | E. carinatus venom MP inhibition % effect (E. carinatus venom MP) [%] | Snake venom metalloprotease inhibition for C. atrox and E. carinatus [7] [%] | M. fulvius venom sPLA2 inhibition % effect (M. fulvius venom sPLA2) [%] | further results
1 | NC(=O)c1ccc(Cc2ccccc2)cc1-c1cccc(CCC(=O)O)c1 [Compound 4, 3-(5′-Benzyl-2′-carbamoylbiphenyl-3-yl) propanoic acid] | 88 | 170 | very weak inhibitory activity; also recorded: virtually no effect | – | – | – | – | IC50 [2]: 670 nM; IC50 (bee venom sPLA2 [3]): > 70 µM; anti-hemolytic activity [4]: anti-hemolytic activity; Plasma Histamine [5]: 10.1 ng/mL; signs of acute kidney injury (gross kidney appearance) [6]: comparably minimal signs of acute kidney injury
2 | O=C(O)C[C@H](O)C[C@H](O)/C=C/c1c(C2CC2)nc2ccccc2c1-c1ccc(F)cc1 [ITAVASTATIN, Pitavastatin] | – | – | – | 5.09 | 0.48 | 0.48 to 5.09 | – | –
3 | CC[C@H](C)C(=O)O[C@H]1C[C@@H](C)C=C2C=C[C@H](C)[C@H](CC[C@@H]3C[C@@H](O)CC(=O)O3)[C@H]21 [LOVASTATIN, Lovastatin] | – | – | – | – | −1.89 | – | 11.09 | –
4 | CC[C@H](C)C(=O)O[C@H]1CCC=C2C=C[C@H](C)[C@H](CC[C@@H]3C[C@@H](O)CC(=O)O3)[C@H]21 [MEVASTATIN, Mevastatin] | – | – | – | 7.17 | −1.89 to 3.82 | −1.89 to 7.17 | 16.29 | –
5 | CCc1c(C(=O)C(N)=O)c2c(OCC(=O)OC)cccc2n1Cc1ccccc1 [Me-Varespladib] | 430 | 170 | very weak inhibitory activity; also recorded: not potent inhibitors | – | – | – | – | IC50 (C. atrox venom sPLA2): 200 nM; IC50 [8]: 360 nM; IC50 (V. russelli venom sPLA2): 80 nM; performance in vitro against bee venom sPLA2 in earlier studies (bee venom sPLA2 [9]): performed extremely poorly
6 | CC[C@H](C)C(=O)O[C@H]1C[C@H](O)C=C2C=C[C@H](C)[C@H](CC[C@@H](O)C[C@@H](O)CC(=O)O)[C@H]21 [PRAVASTATIN, Pravastatin] | – | – | – | 2.27 | 4.02 | 2.27 to 4.02 | 6.9 | –
7 | CCC(C)(C)C(=O)O[C@H]1C[C@@H](C)C=C2C=C[C@H](C)[C@H](CC[C@@H]3C[C@@H](O)CC(=O)O3)[C@H]21 [SIMVASTATIN, Simvastatin] | – | – | – | 4.03 | −0.20 to 4.61 | −0.20 to 4.61 | 16.41 | –
8 | CCc1c(C(=O)C(N)=O)c2c(OCC(=O)O)cccc2n1Cc1ccccc1 [Varespladib, ((3-(2-Amino-1,2-dioxoethyl)-2-ethyl-1-(phenylmethyl)-1H-indol-4-yl)oxy)acetic acid] | 0.9 | 0.8 | very weak inhibitory activity; also recorded: not potent inhibitors | – | – | – | – | IC50 (C. atrox venom sPLA2): 0.7 nM; IC50 [8]: 0.8 nM; IC50 (V. russelli venom sPLA2): 0.4 nM; IC50 [2]: 21 nM; IC50 (bee venom sPLA2 [3]): 12 to 18 µM; higher IC50 against bee venom PLA2 as compared to snake venom PLA2 (bee venom sPLA2 [3]): 5-45,000 fold; survival compared to controls (bee venom): uniformly prolonged survival; anti-hemolytic activity (Hgb absorption spectra) [10]: remained unchanged with the addition of statin; Plasma Histamine [5]: 5.1 ng/mL; signs of acute kidney injury (gross kidney appearance) [6]: minimal signs of acute kidney injury; protection from AKI (pigment nephropathy, hyperemia) [11]: excellent protection from AKI; performance in vitro against bee venom sPLA2 in earlier studies (bee venom sPLA2 [9]): performed extremely poorly
